Patent publication US8828696B2, “Use of Penicillin G Procaine as a selective antimicrobial agent in the production of alcohol by fermentation” (Lallemand Specialites, Inc, priority 2008, dated 2014)

Legend:
Lactobacillus fermentum = assay: Bacterial inhibition test; assay type: cell-based; parameters: key: successful test corresponding to no growth is represented as (=); barely discernable growth is represented as (±); easily noticeable bacterial growth is represented as (+)
Text: (§1) To directly measure the efficacy of Penicillin G Procaine and Penicillin G Potassium a bacterial inhibition test was designed using industrial isolates and chosen ATCC strains. The inhibition testing was spread over 0.1 ppm to 5.0 ppm for the Lactobacillus fermentum and 1.0 ppm to 5.0 ppm for Lactobacillus brevis species of bacteria due to the lack of response of Lactobacillus brevis at lower concentrations. […] The strains used were two isolates of Lactobacillus fermentum and 2 isolates of Lactobacillus brevis. The Lactobacillus fermentum series contained both an industry derived isolate Ind 1 and an ATCC strain while the Lactobacillus brevis series comprised of two isolates, Ind 1 and Ind 43 derived from the ethanol plants. The inhibition test plates were set in triplicate and read at 12 hour intervals up to 48 hours of test endpoint. The results below represent the mode average of the outcome from the triplicate inhibitory test sets for each trial. Table 11 lists the Lactobacillus fermentum and the Lactobacillus brevis results of the inhibition testing as follows: successful test corresponding to no growth is represented as (=), barely discernable growth is represented as (±) and easily noticeable bacterial growth is represented as (+). The set of control tests depict (=) control as just broth and (+) control as just broth with bacteria but without any antibiotic.
(§2) The trial was set up as follows:
(§3) • 1. Weigh out 0.1 g of each sample to be tested into a 15 ml centrifuge tube. • 2. Dissolve sample into 10 ml sterile water. […] Add antibiotic to clean tube, add 2 ml water. • b. Vortex, if antibiotic goes into solution add water for final volume of 10 ml. • c. […] Vortex until all material is in solution. • 3. Vortex the solutions to make sure that they are well mixed. • 4. Filter the solutions through a 0.2 μm syringe filter into a second labeled sterile centrifuge tube. • 5. Add antibiotic solution to MRS Broth for a final volume of 10 ml at the test concentration for each antibiotic. • 6. Mix organism solutions and add 2 μl to each of 3 wells of a 24 well plate. If tubes are used add the 2 μl to each of three tubes for each antibiotic. • 7. Transfer 1 ml of the antibiotic-broth solution to each well containing bacteria. • 8. Recap remaining antibiotic solution and return the tube to the tube rack. This tube will become the negative control for each dilution created. • 9. Add four μl of each bacterial culture to another set of wells and add […] of broth without antibiotics. These wells will be the positive controls. • 10. Incubate plates and tubes at 33 C for 48 hours, examining all samples at 24 hours for growth. Any turbidity detected should be a result of bacterial growth.

Lactobacillus brevis = assay: Bacterial inhibition test; assay type: cell-based; parameters: key to bacterial growth in inhibition test: successful test corresponding to no growth is represented as (=); barely discernable growth is represented as (±); easily noticeable bacterial growth is represented as (+)
Text: as §1, §2, §3

CC1(C)S[C@@H]2[C@H](NC(=O)Cc3ccccc3)C(=O)N2[C@H]1C(=O)O.CCN(CC)CCOC(=O)c1ccc(N)cc1 [Penicillin G Procaine]
bacterial growth in inhibition test (Lactobacillus fermentum; ATCC L. fermentum, 0.1 ppm, Inc Time 12): =
bacterial growth in inhibition test (Lactobacillus fermentum; ATCC L. fermentum, 0.1 ppm, Inc Time 24): =
bacterial growth in inhibition test (Lactobacillus fermentum; ATCC L. fermentum, 0.1 ppm, Inc Time 36): =
bacterial growth in inhibition test (Lactobacillus fermentum; ATCC L. fermentum, 0.1 ppm, Inc Time 48): ±
bacterial growth in inhibition test (Lactobacillus fermentum; ATCC L. fermentum, 0.3 ppm, Inc Time 12): =
bacterial growth in inhibition test (Lactobacillus fermentum; ATCC L. fermentum, 0.3 ppm, Inc Time 24): =
bacterial growth in inhibition test (Lactobacillus fermentum; ATCC L. fermentum, 0.3 ppm, Inc Time 36): =
bacterial growth in inhibition test (Lactobacillus fermentum; ATCC L. fermentum, 0.3 ppm, Inc Time 48): =
bacterial growth in inhibition test (Lactobacillus fermentum; ATCC L. fermentum, 0.5 ppm, Inc Time 12): =
bacterial growth in inhibition test (Lactobacillus fermentum; ATCC L. fermentum, 0.5 ppm, Inc Time 24): =
bacterial growth in inhibition test (Lactobacillus fermentum; ATCC L. fermentum, 0.5 ppm, Inc Time 36): =
bacterial growth in inhibition test (Lactobacillus fermentum; ATCC L. fermentum, 0.5 ppm, Inc Time 48): =
bacterial growth in inhibition test (Lactobacillus fermentum; ATCC L. fermentum, 1 ppm, Inc Time 12): =
bacterial growth in inhibition test (Lactobacillus fermentum; ATCC L. fermentum, 1 ppm, Inc Time 24): =
bacterial growth in inhibition test (Lactobacillus fermentum; ATCC L. fermentum, 1 ppm, Inc Time 36): =
bacterial growth in inhibition test (Lactobacillus fermentum; ATCC L. fermentum, 1 ppm, Inc Time 48): =
bacterial growth in inhibition test (Lactobacillus fermentum; ATCC L. fermentum, 5 ppm, Inc Time 12): =
bacterial growth in inhibition test (Lactobacillus fermentum; ATCC L. fermentum, 5 ppm, Inc Time 24): =
bacterial growth in inhibition test (Lactobacillus fermentum; ATCC L. fermentum, 5 ppm, Inc Time 36): =
bacterial growth in inhibition test (Lactobacillus fermentum; ATCC L. fermentum, 5 ppm, Inc Time 48): =
bacterial growth in inhibition test (Lactobacillus fermentum; Ind 1 L. fermentum, 0.1 ppm, Inc Time 12): =
bacterial growth in inhibition test (Lactobacillus fermentum; Ind 1 L. fermentum, 0.1 ppm, Inc Time 24): ±
bacterial growth in inhibition test (Lactobacillus fermentum; Ind 1 L. fermentum, 0.1 ppm, Inc Time 36): ±
bacterial growth in inhibition test (Lactobacillus fermentum; Ind 1 L. fermentum, 0.1 ppm, Inc Time 48): ±
bacterial growth in inhibition test (Lactobacillus fermentum; Ind 1 L. fermentum, 0.3 ppm, Inc Time 12): =
bacterial growth in inhibition test (Lactobacillus fermentum; Ind 1 L. fermentum, 0.3 ppm, Inc Time 24): =
bacterial growth in inhibition test (Lactobacillus fermentum; Ind 1 L. fermentum, 0.3 ppm, Inc Time 36): =
bacterial growth in inhibition test (Lactobacillus fermentum; Ind 1 L. fermentum, 0.3 ppm, Inc Time 48): ±
bacterial growth in inhibition test (Lactobacillus fermentum; Ind 1 L. fermentum, 0.5 ppm, Inc Time 12): =
bacterial growth in inhibition test (Lactobacillus fermentum; Ind 1 L. fermentum, 0.5 ppm, Inc Time 24): =
bacterial growth in inhibition test (Lactobacillus fermentum; Ind 1 L. fermentum, 0.5 ppm, Inc Time 36): =
bacterial growth in inhibition test (Lactobacillus fermentum; Ind 1 L. fermentum, 0.5 ppm, Inc Time 48): =
bacterial growth in inhibition test (Lactobacillus fermentum; Ind 1 L. fermentum, 1.0 ppm, Inc Time 12): =
bacterial growth in inhibition test (Lactobacillus fermentum; Ind 1 L. fermentum, 1.0 ppm, Inc Time 24): =
bacterial growth in inhibition test (Lactobacillus fermentum; Ind 1 L. fermentum, 1.0 ppm, Inc Time 36): =
bacterial growth in inhibition test (Lactobacillus fermentum; Ind 1 L. fermentum, 1.0 ppm, Inc Time 48): =
bacterial growth in inhibition test (Lactobacillus fermentum; Ind 1 L. fermentum, 5.0 ppm, Inc Time 12): =
bacterial growth in inhibition test (Lactobacillus fermentum; Ind 1 L. fermentum, 5.0 ppm, Inc Time 24): =
bacterial growth in inhibition test (Lactobacillus fermentum; Ind 1 L. fermentum, 5.0 ppm, Inc Time 36): =
bacterial growth in inhibition test (Lactobacillus fermentum; Ind 1 L. fermentum, 5.0 ppm, Inc Time 48): =
bacterial growth in inhibition test (Lactobacillus brevis; Ind 1 L. brevis, 1 ppm, Inc Time 12): ±
bacterial growth in inhibition test (Lactobacillus brevis; Ind 1 L. brevis, 1 ppm, Inc Time 24): +
bacterial growth in inhibition test (Lactobacillus brevis; Ind 1 L. brevis, 1 ppm, Inc Time 36): +
bacterial growth in inhibition test (Lactobacillus brevis; Ind 1 L. brevis, 1 ppm, Inc Time 48): +
bacterial growth in inhibition test (Lactobacillus brevis; Ind 1 L. brevis, 2 ppm, Inc Time 12): ±
bacterial growth in inhibition test (Lactobacillus brevis; Ind 1 L. brevis, 2 ppm, Inc Time 24): +
bacterial growth in inhibition test (Lactobacillus brevis; Ind 1 L. brevis, 2 ppm, Inc Time 36): +
bacterial growth in inhibition test (Lactobacillus brevis; Ind 1 L. brevis, 2 ppm, Inc Time 48): +
bacterial growth in inhibition test (Lactobacillus brevis; Ind 1 L. brevis, 3 ppm, Inc Time 12): ±
bacterial growth in inhibition test (Lactobacillus brevis; Ind 1 L. brevis, 3 ppm, Inc Time 24): +
bacterial growth in inhibition test (Lactobacillus brevis; Ind 1 L. brevis, 3 ppm, Inc Time 36): +
bacterial growth in inhibition test (Lactobacillus brevis; Ind 1 L. brevis, 3 ppm, Inc Time 48): +
bacterial growth in inhibition test (Lactobacillus brevis; Ind 1 L. brevis, 4 ppm, Inc Time 12): ±
bacterial growth in inhibition test (Lactobacillus brevis; Ind 1 L. brevis, 4 ppm, Inc Time 24): ±
bacterial growth in inhibition test (Lactobacillus brevis; Ind 1 L. brevis, 4 ppm, Inc Time 36): +
bacterial growth in inhibition test (Lactobacillus brevis; Ind 1 L. brevis, 4 ppm, Inc Time 48): +
bacterial growth in inhibition test (Lactobacillus brevis; Ind 1 L. brevis, 5 ppm, Inc Time 12): =
bacterial growth in inhibition test (Lactobacillus brevis; Ind 1 L. brevis, 5 ppm, Inc Time 24): =
bacterial growth in inhibition test (Lactobacillus brevis; Ind 1 L. brevis, 5 ppm, Inc Time 36): ±
bacterial growth in inhibition test (Lactobacillus brevis; Ind 1 L. brevis, 5 ppm, Inc Time 48): +
bacterial growth in inhibition test (Lactobacillus brevis; Ind 43 L. brevis, 1 ppm, Inc Time 12): =
bacterial growth in inhibition test (Lactobacillus brevis; Ind 43 L. brevis, 1 ppm, Inc Time 24): +
bacterial growth in inhibition test (Lactobacillus brevis; Ind 43 L. brevis, 1 ppm, Inc Time 36): +
bacterial growth in inhibition test (Lactobacillus brevis; Ind 43 L. brevis, 1 ppm, Inc Time 48): +
bacterial growth in inhibition test (Lactobacillus brevis; Ind 43 L. brevis, 2 ppm, Inc Time 12): =
bacterial growth in inhibition test (Lactobacillus brevis; Ind 43 L. brevis, 2 ppm, Inc Time 24): +
bacterial growth in inhibition test (Lactobacillus brevis; Ind 43 L. brevis, 2 ppm, Inc Time 36): +
bacterial growth in inhibition test (Lactobacillus brevis; Ind 43 L. brevis, 2 ppm, Inc Time 48): +
bacterial growth in inhibition test (Lactobacillus brevis; Ind 43 L. brevis, 3 ppm, Inc Time 12): =
bacterial growth in inhibition test (Lactobacillus brevis; Ind 43 L. brevis, 3 ppm, Inc Time 24): +
bacterial growth in inhibition test (Lactobacillus brevis; Ind 43 L. brevis, 3 ppm, Inc Time 36): +
bacterial growth in inhibition test (Lactobacillus brevis; Ind 43 L. brevis, 3 ppm, Inc Time 48): +
bacterial growth in inhibition test (Lactobacillus brevis; Ind 43 L. brevis, 4 ppm, Inc Time 12): =
bacterial growth in inhibition test (Lactobacillus brevis; Ind 43 L. brevis, 4 ppm, Inc Time 24): ±
bacterial growth in inhibition test (Lactobacillus brevis; Ind 43 L. brevis, 4 ppm, Inc Time 36): +
bacterial growth in inhibition test (Lactobacillus brevis; Ind 43 L. brevis, 4 ppm, Inc Time 48): +
bacterial growth in inhibition test (Lactobacillus brevis; Ind 43 L. brevis, 5 ppm, Inc Time 12): =
bacterial growth in inhibition test (Lactobacillus brevis; Ind 43 L. brevis, 5 ppm, Inc Time 24): ±
bacterial growth in inhibition test (Lactobacillus brevis; Ind 43 L. brevis, 5 ppm, Inc Time 36): ±
bacterial growth in inhibition test (Lactobacillus brevis; Ind 43 L. brevis, 5 ppm, Inc Time 48): +
minimum inhibitory concentration (Lactobacillus brevis; industry isolated Lactobacillus brevis, ppm of the fermentation mixture): 1.0 ppm
